{
  "source": "paper PMC9090415",
  "about": "“Discovery of small molecule inhibitors of Plasmodium falciparum apicoplast DNA polymerase” (Journal of Enzyme Inhibition and Medicinal Chemistry, 2022)",
  "target": "P. falciparum apicoplast DNA polymerase (Pf-apPOL) (Plasmodium falciparum, UniProt Q8ILY1)",
  "sequence (Q8ILY1 entry or part of it)": "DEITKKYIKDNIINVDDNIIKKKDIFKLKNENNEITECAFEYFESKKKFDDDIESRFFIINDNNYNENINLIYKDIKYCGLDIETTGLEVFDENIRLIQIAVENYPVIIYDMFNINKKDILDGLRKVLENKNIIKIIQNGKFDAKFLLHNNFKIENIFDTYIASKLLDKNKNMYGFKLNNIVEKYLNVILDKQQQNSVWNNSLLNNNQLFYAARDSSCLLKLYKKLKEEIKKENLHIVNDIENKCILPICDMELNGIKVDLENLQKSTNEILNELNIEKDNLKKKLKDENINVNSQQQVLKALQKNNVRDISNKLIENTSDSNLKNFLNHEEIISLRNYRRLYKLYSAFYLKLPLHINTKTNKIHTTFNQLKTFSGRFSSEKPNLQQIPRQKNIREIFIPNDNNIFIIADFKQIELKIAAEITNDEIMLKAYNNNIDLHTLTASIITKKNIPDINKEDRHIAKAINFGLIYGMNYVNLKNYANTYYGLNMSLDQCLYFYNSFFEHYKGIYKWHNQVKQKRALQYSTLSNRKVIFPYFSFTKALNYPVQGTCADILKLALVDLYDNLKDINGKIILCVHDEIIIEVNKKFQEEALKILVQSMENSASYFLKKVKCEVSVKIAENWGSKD",
  "experiment": "Fluorescence-based high-throughput DNA polymerase assay (molecular beacon), primary screen and dose-response;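 for % inhibition Apol 40': compound concentration given in µM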",
  "format": "biochemical",
  "settings": "for DNA Pol: 90 min, 10 µM",
  "experimental": "The HT assay employs a molecular beacon, a stem-loop DNA template with a Cy3 dye and the Black Hole Quencher on the 3′ and 5′ ends of the DNA, respectively. Pf-apPOL concentration is based on a calculated absorptivity of ε280 = 56750 M^−1 cm^−1. Reactions were carried out at 25 °C, using Corning 3575 […] (well-volume, 20 µL). Assays testing for compound inhibition composed of reaction buffer (pH 7.9 in 50 mM potassium acetate, 20 mM Tris-acetate and 10 mM magnesium acetate), Pf-apPOL (20 nM), DNA substrate (20 nM), dNTPs (6 µM), and compound (10 µM in DMSO). The DNA and nucleotide substrates (dNTPs) were at concentrations of 20 nM and 6 µM, respectively, in the assay. Pf-apPOL was incubated in the reaction buffer with dNTPs and the compound of interest (10 µM, in the assay) at 25 °C for 10 min. The DNA substrate was then added and the reaction was allowed to proceed for 90 min at 25 °C.\nEach assay plate contained 16 negative controls (no Pf-apPOL, DMSO present) and 16 positive controls (Pf-apPOL present, no DMSO). The fluorescence of each well was determined using a BioTek Synergy Neo fluorescence plate reader using excitation and emission wavelengths of 555 and 570 nm, respectively.\nIn the above, Min is the average of fluorescence emission of the negative controls (substrate only), Max the average fluorescence emission from the positive controls (enzyme + substrate), and Test the emission from the assays in the presence of compounds (enzyme + compound + substrates). […] […] The IC50 of each compound was determined using Equation (2): (2) IC50= Vmax/(1+ (I/IC50)^n)\nIn the above, n measures cooperativity, with n > 1 indicating synergistic binding of more than a single molecule of the compound.\nTo identify apPOL inhibitors we utilised our previously developed high-throughput DNA polymerase assay. The HT assay is based on a molecular beacon DNA template that forms a stem-loop with a Cy3 dye and the Black Hole Quencher on the 3′ and 5′ ends of the DNA, respectively. DNA polymerase activity extends an annealed primer through the stem region, displacing the fluorophore from the quencher, thereby increasing its fluorescence (Figure 1(A)). The assay accurately recapitulates the kinetic behaviour of apPOL, as measured through more conventional low-throughput gel-based assays. The Z′ factor for the assay described here was 0.9 across all plates (data not shown).\nFigure 1. High-throughput screening. (A) The fluorescent-based DNA polymerase assay used to screen the compound libraries. The DNA template strand is a hairpin loop with a primer annealed to the loop. The 3’ end of the primer is 11 bases away from the 6 bp duplex. Strand displacement activity of the DNA polymerase separates the Cy3 dye from the Black hole quencher leading to an increase in fluorescent signal. (B) The high-throughput assay workflow. The DNA polymerase is incubated with […] compound for 10 min prior to addition of the hairpin substrate. The reaction is quenched at 3 different time points and the fluorescent signal is measured and % inhibition is determined using the provided equation.",
  "data": [
    {"compound": "C=CCOc1c(Br)cc(Br)cc1/C=C1\\SC(=N)NC1=O", "note": "[KU0051640]", "values": [
      {"measurement": "DNA Pol", "setting": "'DNA Pol' of the 186 hits list (screen value)", "value": 26},
      {"measurement": "% inhibition Apo pol 10'", "setting": "DRC-1, conc 2.5", "value": 4.163, "unit": "%"},
      {"measurement": "% inhibition Apo pol 10'", "setting": "DRC-1, conc 5", "value": -1.099, "unit": "%"},
      {"measurement": "% inhibition Apo pol 10'", "setting": "DRC-1, conc 10", "value": 11.4088, "unit": "%"},
      {"measurement": "% inhibition Apo pol 10'", "setting": "DRC-1, conc 20", "value": 46.0852, "unit": "%"},
      {"measurement": "% inhibition Apo pol 10'", "setting": "DRC-1, conc 40", "value": 88.1194, "unit": "%"},
      {"measurement": "% inhibition Apo pol 10'", "setting": "DRC-1, conc 80", "value": 94.2659, "unit": "%"},
      {"measurement": "% inhibition Apol 90'", "setting": "DRC-1, conc 2.5", "value": 2.139, "unit": "%"},
      {"measurement": "% inhibition Apol 90'", "setting": "DRC-1, conc 5", "value": -4.076, "unit": "%"},
      {"measurement": "% inhibition Apol 90'", "setting": "DRC-1, conc 10", "value": 7.3276, "unit": "%"},
      {"measurement": "% inhibition Apol 90'", "setting": "DRC-1, conc 20", "value": 38.2187, "unit": "%"},
      {"measurement": "% inhibition Apol 90'", "setting": "DRC-1, conc 40", "value": 86.7215, "unit": "%"},
      {"measurement": "% inhibition Apol 90'", "setting": "DRC-1, conc 80", "value": 95.0722, "unit": "%"},
      {"measurement": "% inhibition apPOL 180'", "setting": "DRC-1, conc 2.5", "value": -0.2194, "unit": "%"},
      {"measurement": "% inhibition apPOL 180'", "setting": "DRC-1, conc 5", "value": -7.333, "unit": "%"},
      {"measurement": "% inhibition apPOL 180'", "setting": "DRC-1, conc 10", "value": 0.9345, "unit": "%"},
      {"measurement": "% inhibition apPOL 180'", "setting": "DRC-1, conc 20", "value": 26.8822, "unit": "%"},
      {"measurement": "% inhibition apPOL 180'", "setting": "DRC-1, conc 40", "value": 86.6627, "unit": "%"},
      {"measurement": "% inhibition apPOL 180'", "setting": "DRC-1, conc 80", "value": 95.6515, "unit": "%"},
      {"measurement": "% inhibition Apo pol 5'", "setting": "DRC-2, conc 2.5", "value": 11, "unit": "%"},
      {"measurement": "% inhibition Apo pol 5'", "setting": "DRC-2, conc 5", "value": 7, "unit": "%"},
      {"measurement": "% inhibition Apo pol 5'", "setting": "DRC-2, conc 10", "value": 20, "unit": "%"},
      {"measurement": "% inhibition Apo pol 5'", "setting": "DRC-2, conc 20", "value": 43, "unit": "%"},
      {"measurement": "% inhibition Apo pol 5'", "setting": "DRC-2, conc 40", "value": 54, "unit": "%"},
      {"measurement": "% inhibition Apo pol 5'", "setting": "DRC-2, conc 80", "value": 54, "unit": "%"},
      {"measurement": "% inhibition Apo pol 5'", "setting": "DRC-2, concentration 5", "value": 7, "unit": "%"},
      {"measurement": "% inhibition Apo pol 5'", "setting": "DRC-2, concentration 40", "value": 54, "unit": "%"},
      {"measurement": "% inhibition Apo pol 5'", "setting": "DRC-2, concentration 80", "value": 54, "unit": "%"},
      {"measurement": "% inhibition Apol 40'", "setting": "DRC-2, conc 2.5", "value": 12, "unit": "%"},
      {"measurement": "% inhibition Apol 40'", "setting": "DRC-2, conc 5", "value": 7, "unit": "%"},
      {"measurement": "% inhibition Apol 40'", "setting": "DRC-2, conc 10", "value": 24, "unit": "%"},
      {"measurement": "% inhibition Apol 40'", "setting": "DRC-2, conc 20", "value": 54, "unit": "%"},
      {"measurement": "% inhibition Apol 40'", "setting": "DRC-2, conc 40", "value": 72, "unit": "%"},
      {"measurement": "% inhibition Apol 40'", "setting": "DRC-2, conc 80", "value": 75, "unit": "%"},
      {"measurement": "% inhibition Apol 40'", "setting": "DRC-2, concentration 2.5", "value": 12, "unit": "%"},
      {"measurement": "% inhibition Apol 40'", "setting": "DRC-2, concentration 5", "value": 7, "unit": "%"},
      {"measurement": "% inhibition Apol 40'", "setting": "DRC-2, concentration 20", "value": 54, "unit": "%"},
      {"measurement": "% inhibition ApPOL 90'", "setting": "DRC-2, conc 2.5", "value": 12, "unit": "%"},
      {"measurement": "% inhibition ApPOL 90'", "setting": "DRC-2, conc 5", "value": 6.55, "unit": "%"},
      {"measurement": "% inhibition ApPOL 90'", "setting": "DRC-2, conc 10", "value": 23, "unit": "%"},
      {"measurement": "% inhibition ApPOL 90'", "setting": "DRC-2, conc 20", "value": 56, "unit": "%"},
      {"measurement": "% inhibition ApPOL 90'", "setting": "DRC-2, conc 40", "value": 76, "unit": "%"},
      {"measurement": "% inhibition ApPOL 90'", "setting": "DRC-2, conc 80", "value": 79, "unit": "%"},
      {"measurement": "% inhibition ApPOL 90'", "setting": "DRC-2, concentration 2.5", "value": 12, "unit": "%"},
      {"measurement": "% inhibition ApPOL 90'", "setting": "DRC-2, concentration 40", "value": 76, "unit": "%"},
      {"measurement": "% inhibition apPOL 180'", "setting": "DRC-2, conc 2.5", "value": 9, "unit": "%"},
      {"measurement": "% inhibition apPOL 180'", "setting": "DRC-2, conc 5", "value": 4, "unit": "%"},
      {"measurement": "% inhibition apPOL 180'", "setting": "DRC-2, conc 10", "value": 17, "unit": "%"},
      {"measurement": "% inhibition apPOL 180'", "setting": "DRC-2, conc 20", "value": 49, "unit": "%"},
      {"measurement": "% inhibition apPOL 180'", "setting": "DRC-2, conc 40", "value": 76, "unit": "%"},
      {"measurement": "% inhibition apPOL 180'", "setting": "DRC-2, conc 80", "value": 81, "unit": "%"},
      {"measurement": "% inhibition apPOL 180'", "setting": "DRC-2, concentration 40", "value": 76, "unit": "%"},
      {"measurement": "DNA Pol", "setting": "primary screen value, \"DNA Pol\"", "value": 26}
    ]},
    {"compound": "COc1ccc(-c2cc3nc4c(c(=O)n3[nH]2)CCN(C(=O)CCc2ccccc2)C4)cc1", "note": "[Molecule 17]", "values": [
      {"measurement": "IC50", "setting": "supplemental file 2, sheet IC50 nontoxic compounds, Pf-apPOL", "value": 7.1, "unit": "µM"}
    ]}
  ]
}
